For 81 compounds, IC50 results are on record in PubChem BioAssay AID1645868 (Buhrlage Lab, Dana-Farber Cancer Institute and Novartis …, 2021).

The structures appear in SMILES notation. The source made the active and inactive calls.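 The calls were made as follows: active = maximal percent inhibition of the deubiquitinase OTUD3 of at least 30% across the tested doses; inactive = the rest.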

For the assay, the target named is OTU domain-containing protein 3 (Homo sapiens) (UniProt Q5T2D3). Kind of assay: Validation of screening hits, potency titration, in vitro enzymatic, OTU domain-containing protein 3 DUB inhibitors (AID 1645868). The note with it: purified OTUD3, ubiquitin-rhodamine cleavage fluorescence, 2 h.
OTU domain-containing protein 3 (Homo sapiens), sequence (Q5T2D3 whole entry, looked up, the tested form may be a part): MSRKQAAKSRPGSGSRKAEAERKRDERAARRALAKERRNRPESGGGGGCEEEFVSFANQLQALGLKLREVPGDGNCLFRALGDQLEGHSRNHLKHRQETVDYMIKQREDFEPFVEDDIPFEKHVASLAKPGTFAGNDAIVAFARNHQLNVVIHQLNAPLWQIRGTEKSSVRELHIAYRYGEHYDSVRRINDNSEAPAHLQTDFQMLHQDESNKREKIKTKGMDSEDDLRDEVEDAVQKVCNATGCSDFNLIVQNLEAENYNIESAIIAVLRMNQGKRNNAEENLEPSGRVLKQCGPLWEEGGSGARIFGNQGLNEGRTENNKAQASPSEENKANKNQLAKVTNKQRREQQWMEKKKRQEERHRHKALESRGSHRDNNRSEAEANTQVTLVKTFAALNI

As usually defined, the IC50 is the point on the concentration scale where inhibition reaches its midpoint. As for `O=C(Cn1c(=O)nc(-c2ccccc2)c2ccccc21)NCc1ccc2c(c1)OCO2`, the half-maximal inhibitory concentration (IC50) is 22.3 µM.
With `N#Cc1ccc(-c2ccc(OCC(=O)Nc3ccc4c(c3)OCO4)cc2)cc1` the figure was > 50 µM (inactive); with `CCOC(=O)c1sc2nc(CC(=O)OC)nc(NCc3ccco3)c2c1C`, > 50 µM (inactive); with `Cc1ccc(Cn2nnc(C(=O)NCc3ccco3)c2-n2cccc2)cc1`, > 50 µM (inactive).
`COc1ccc2nc(Nc3nc(-c4cnc(N5CCOCC5)nc4C)cc(=O)[nH]3)nc(C)c2c1`: the IC50 is > 50 µM (inactive).
Regarding `CCCC(O)CCCCCCCc1cc(O)cc(O)c1C(=O)OC(CCC)CCCCCCCc1cc(O)cc(O)c1` (stereo unspecified), the 50% inhibitory concentration (IC50) is 36 µM.
On to `Cc1ccc2c(C)nc(Nc3ncc4c(n3)CC(c3ccco3)CC4=O)nc2c1` (stereo unspecified), for which the IC50 was 0.168 µM.
As for `COc1ccc(NC(=O)c2nnn(-c3ccccc3)c2C)cc1OC`, the figure is > 50 µM (inactive); as for `O=C(Nc1cccc(N2CCCC2=O)c1)c1cccc2cccnc12`, > 50 µM (inactive); as for `COc1ccc(N2CCN(Cc3nnnn3Cc3ccc4c(c3)OCO4)CC2)cc1`, > 50 µM (inactive).
With `COc1ncccc1CN1CCn2c(Cn3cncn3)cnc2C1C` (stereo unspecified) the figure was > 50 µM (inactive); with `O=C(NCC1CC1)C1CCCN(c2ccc(-c3ccccc3)nn2)C1` (stereo unspecified), > 50 µM (inactive); with `COc1cc2c(cc1OC)C(COc1ccccc1OC)N(C(=O)c1ccc3ccccc3c1)CC2` (stereo unspecified), > 50 µM (inactive).
`Cc1cc(O)c2c3c(c(O)c4c(c13)O[C@@H](C)C4(C)C)C(=O)C2=O`: the IC50 was 31.9 µM.
Regarding `Nc1nonc1C(=O)NCCNCc1cccc(OCc2ccc(Cl)cc2)c1`, the IC50 was > 50 µM (inactive).
As for `O=C(Nc1ccc2sccc2c1)c1ccc(F)cc1`, the figure is > 50 µM (inactive); as for `COc1ccccc1-c1nc2c3c(C)c(C)n(Cc4cccnc4)c3ncn2n1`, > 50 µM (inactive); as for `O=C(CN1CCCc2ccccc21)Nc1ccc(N2CCOCC2)cc1`, > 50 µM (inactive).
As for `O=S1(=O)CCN(Cc2cccnc2)c2c(F)nc(N3CCOCC3)c(F)c21`, the figure is > 50 µM (inactive).
With `Cn1cc(-c2cnc(-c3cccc(F)c3)nc2)cc1C(=O)NCc1cccnc1` the figure was > 50 µM (inactive).
With `O=C1CC(c2cc3c(cc2Br)OCO3)c2cc3c(cc2N1)OCCO3` (stereo unspecified), the IC50 is 18.7 µM.
For `O=C(CCC1CCCCC1)Nc1ccccc1C(=O)N1CCOCC1`, the IC50 was > 50 µM (inactive).
Take `COc1cccc(CN2CCc3nc4nc(C)ccc4cc3C2)c1`: the IC50 was > 50 µM (inactive).
With `O=C(/C=C/c1ccc(F)cc1)Nc1ccc2c(c1)OCCO2` the figure was > 50 µM (inactive).
With `COc1ccccc1-n1nnc(C(=O)Nc2ccc(Oc3ccccc3)cc2)c1C`, the IC50 was > 50 µM (inactive).
With `O=C(Cc1ccccc1F)Nc1nc(-c2ccco2)c(-c2ccco2)s1` the figure was > 50 µM (inactive); with `Cc1cccc(-c2nc3n(CC(=O)Nc4ccc(Cl)cc4)c(C)cc(=O)n3n2)c1`, 2 µM; with `Cc1c(-c2nnc(-c3ccccc3Cl)o2)nnn1-c1ccccc1`, > 50 µM (inactive).
As for `O=C(Nc1ccc2nccnc2c1)c1cccc(C(F)(F)F)c1`, the figure is > 50 µM (inactive); as for `CCOc1ccc2c(c1)c(=O)c(C(=O)c1ccc(C)cc1)cn2CC(=O)Nc1ccc(OC)c(OC)c1`, 2.01 µM; as for `c1ccc2c(c1)CCc1c-2nc2ccccc2c1N1CCOCC1`, > 50 µM (inactive).
For `Cc1cc(C(=O)N2CCOC3(CC=CCN(CCc4ccccc4)C3=O)C2)n2nccc2n1` (stereo unspecified), the IC50 is > 50 µM (inactive).
Turning to `CCOC(=O)Nc1ccc(N2CCn3c(nc4ccccc43)C2)cc1OC`, the IC50 was > 50 µM (inactive).
For `Cc1cc(/C=C2/C(=N)N3C(c4ccccc4)=CSC3=NC2=O)c(C)n1-c1ccc2ccccc2c1`, the IC50 is > 50 µM (inactive).
`Cc1ccc2c(c1)[C@]1(C(=O)N2)[C@@H](C(=O)c2ccccc2)[C@]2(C(=O)Nc3ccccc32)[C@@H]2CCCN21`: the IC50 was 25.1 µM.
As for `CN(C)C(=O)CSc1nnc(-c2cccc(Cl)c2)n1-c1ccc(Cl)c(C(F)(F)F)c1`, the IC50 was > 50 µM (inactive).
As for `CC1=C(Cn2c3cccc(=O)c-3nc3ccccc32)CCC(C)(C)C1`, the figure is 3.73 µM.
As to `O=C(/C=C/c1ccccc1)N1CCN(C2=NS(=O)(=O)c3ccccc32)CC1`, the IC50 was > 50 µM (inactive).
As for `Cc1nc(NCc2ccccn2)c2cc(-c3ccccc3)sc2n1`, the figure is 45.3 µM; as for `COc1ccc(OC)c(NC(=O)C2Oc3ccccc3NC2=O)c1` (stereo unspecified), > 50 µM (inactive); as for `CCCCCCCCCC(CCCCCCCCCC(=O)O)O[C@H]1O[C@@H](COC(C)=O)[C@H](O)[C@@H](O)[C@H]1OC(=O)CC(=O)O` (stereo partly specified), 22.5 µM.
With `CC[C@H](C)[C@H](NC(=O)[C@H]([C@@H](C)CC)N(C)C(C)=O)C(=O)N[C@H](C(=O)N[C@@H](CC(C)C)C(=O)C1(C)CO1)[C@@H](C)O` (stereo partly specified) the figure was > 50 µM (inactive); with `C/C1=C\CCC(C)C(O)CC(O)C(C)C(O)CCC(C)C(O)CC2(O)OC(CC(OC(=O)CC(=O)O)CC(O)CC(O)CC(O)C(C)C(O)/C=C/C(C)C(C(C)CCCCCCCCN=C(N)N)OC1=O)CC(O)C2O` (stereo unspecified), > 50 µM (inactive); with `O=C(CN1C(=O)COc2ccc(Cl)cc21)Nc1cccc2ncccc12`, > 50 µM (inactive).
With `CCCCCC(O)c1c(O)cc2c(c1O)C(=O)c1c(O)cc(O)cc1C2=O` (stereo unspecified) the figure was > 50 µM (inactive); with `O=C(Cc1cccnc1)Nc1ccc(N2CCN(C3CCCCC3)C2=O)nc1`, > 50 µM (inactive).
For `N#Cc1c(-c2cccs2)cc(-c2cccs2)[nH]c1=O`, the IC50 is > 50 µM (inactive).
In the case of `C[C@]12C(=O)N(c3ccc(C(=O)NCc4ccc(F)cc4)cc3)C(=O)N1CCc1c2[nH]c2ccccc12`, the IC50 was > 50 µM (inactive).
With `Cc1cc(C)n(-c2cccc(C(=O)Nc3ccc4c(c3)CCN4S(C)(=O)=O)c2)n1` the figure was > 50 µM (inactive).
For `COc1ccc(-c2nc(Cn3nnc(C(=O)Nc4ccc(C)c(C)c4)c3N)c(C)o2)cc1`, the half-inhibitory concentration (IC50) is 3.46 µM.
As for `c1csc(CCN2CCc3nc4cccnc4cc3C2)c1`, the figure is > 50 µM (inactive); as for `CC(C)CCCCCCCCCCC(=O)N(C)[C@H](CO)C(=O)N[C@H](C)C(=O)NCC(=O)N(C)C1C(=O)N[C@@H](C)C(=O)NC(C(=O)O)Cc2ccc(O)c(c2)-c2cc1ccc2O` (stereo partly specified), > 50 µM (inactive); as for `O=C(NCc1ccccc1Cl)c1ccc(-c2nnc(-c3ccccc3)o2)cc1`, 5.57 µM.
As for `CSc1nc2ncc3c(=O)n(CCc4ccccc4)ccc3n2n1`, the figure is > 50 µM (inactive); as for `Cc1sc(-c2ccc(Cl)nc2)nc1OC(=O)c1ccc(F)cc1F`, > 50 µM (inactive); as for `CC(C)c1cc2c(c(O)c1O)[C@@]13CCCC(C)(C)[C@@H]1C[C@@H]2OC3=O`, 28.1 µM.
With `CC(C)N1CC2CN(C(=O)c3ccccc3)CCN2Cc2ccccc21` (stereo unspecified) the figure was > 50 µM (inactive).
Regarding `CN(C)c1cccc(C(=O)Nc2cc(-c3cccnc3)no2)c1`, the half-maximal inhibitory concentration (IC50) is 35.8 µM.
Regarding `Cc1ccccc1C(=O)c1ccc(C(=O)NC2CCCCCC2)[nH]1`, the IC50 is 20.7 µM.
As for `N=C1C(c2nc3ccccc3s2)=C(O)CN1Cc1ccc(F)cc1`, the figure is > 50 µM (inactive); as for `COc1ccccc1CNC(=O)C1CCCN(c2nc3ccsc3c(=O)s2)C1` (stereo unspecified), > 50 µM (inactive); as for `O=C(CNC(=O)c1cc2ccccc2[nH]1)Nc1ccc2c(c1)OCCO2`, > 50 µM (inactive).
With `COc1ccc(CNC(=O)CN2C(=O)C(C)=C(c3ccc(C)cc3)S2(=O)=O)cc1`, the IC50 is > 50 µM (inactive).
As for `O=C(Nc1ccc2c(c1)OCCO2)c1ccc(N2CCCC2=O)cc1`, the figure is > 50 µM (inactive); as for `COc1ccc(C(C)=O)cc1CC(=O)Nc1nc2ccccc2[nH]1`, > 50 µM (inactive).
Consider `COc1cc(NC(=O)Cn2nc(-c3ccc(F)cc3)ccc2=O)ccc1-n1cnnn1`, for which the IC50 was 5.56 µM.
As for `COc1cccc(NC(=O)C2Cc3ccccc3N2C(=O)c2ccccc2)c1` (stereo unspecified), the figure is 20.1 µM; as for `CC1CCN(C(=O)c2cn(-c3cc(N4CCC(C)CC4)ncn3)cn2)CC1`, > 50 µM (inactive); as for `O=[N+]([O-])c1cccc(CSc2nnc(/C=C/c3ccccc3)o2)c1`, > 50 µM (inactive).
In the case of `O=C(COc1ccc2c(c1)CCC2)Nc1ccc2c(c1)CCC2`, the IC50 is > 50 µM (inactive).
Regarding `CC(C)NC(=O)[C@H](Cc1ccccc1)NC(=O)N1CCn2c1nc1ccccc12`, the IC50 was > 50 µM (inactive).
As for `COc1ccccc1Nc1ncc(C(=O)NCCc2ccc(Cl)cc2)c2ccccc12`, the figure is 21.2 µM.
With `CCn1c(CNc2ccc(Cl)cc2)nnc1SCC(=O)Nc1ccccc1`, the IC50 is > 50 µM (inactive).
As for `O=C(NC1CCCCC1)c1cc2c(cn1)[nH]c1ccccc12`, the IC50 is > 50 µM (inactive).
With `O=C(Nc1cccc(C(F)(F)F)c1)c1cc2c(s1)-c1ccccc1OC2` the figure was 15.2 µM; with `COc1ccc(C(C(=O)NC2CCCCC2)N(C(=O)CCCC(=O)Nc2ccccn2)c2ccccc2C)cc1` (stereo unspecified), 22.3 µM; with `CCCc1c(C(=O)O)c(O[C@H]2O[C@H](C)[C@@H](OC)[C@H](OC)[C@@H]2OC)cc2cc3c(c(O)c12)C(=O)c1c(O)cc(O[C@@H]2O[C@@H](C)[C@H](O[C@H]4O[C@H](C)[C@@H](OC)[C@H](OC)[C@@H]4O)[C@@H](OC)[C@H]2O)cc1C3=O`, > 50 µM (inactive).
With `O=S1(=O)CCN(CC2CCCO2)c2c(Oc3ccccc3)nc(F)c(Cl)c21` (stereo unspecified) the figure was > 50 µM (inactive); with `CCOc1cc(C2C3=C(CC(C)(C)CC3=O)Nc3onc(C)c32)ccc1O` (stereo unspecified), > 50 µM (inactive); with `Cc1nc(-c2noc(-c3ccncc3)n2)cn1CC(=O)N1CCN(c2ccc(F)cc2)CC1`, > 50 µM (inactive).
With `CN[C@H]1CC2(CCN(C(=O)CCCn3cccn3)CC2)OC[C@]1(C)O` the figure was > 50 µM (inactive).
